For one assay, the target named is T1, PLA2G16 (Homo sapiens, UniProt P53816).
T1 construct: Hexa-His (N); made in house; host or cells: E. coli BL21(DE3)
T1 sequence (P53816 1-162): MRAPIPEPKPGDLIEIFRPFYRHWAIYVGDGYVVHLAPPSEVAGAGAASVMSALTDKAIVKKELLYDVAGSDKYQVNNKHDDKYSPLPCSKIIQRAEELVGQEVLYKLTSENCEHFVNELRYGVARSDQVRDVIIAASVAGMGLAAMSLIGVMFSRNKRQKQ
In words: Enzyme activity assay for PLA2G16 (Red/Green BODIPY PC-A2 fluorescence). It is filed as biochemical. To be noted: His-tagged PLA2G16, 4 min pre-incubation, compound 2 nM to 50 μM; first symbol in parentheses. In a few lines: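 N-His human PLA2G16 was expressed in E. coli and Ni-NTA purified. Enzyme in 5 mM glutathione was preincubated 4 min with compound (2 nM–50 μM final), then Red/Green BODIPY PC-A2 in DOPC/DOPG/cholesterol vesicles was added (50 mM Tris pH 8.5, 100 mM NaCl). Fluorescence increase (ex 480/em 530 nm) over 10 min gave activity; IC50 came from nonlinear regression.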

In assay [1] the test system is picornaviruses (CVB1, HRV-A2, HRV-A23, EV-68). The assay can be described thus: Anti-picornavirus cytopathic effect (CPE) reduction assay on HeLa H1 cells. It is filed as cell-based. To be noted: 48 h, category from averaging EC50 values of four picornaviruses (CVB1, HRV-A2, HRV-A23, EV68), second symbol in parentheses. The method in brief: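 HeLa H1 cells pre-treated 2 h with serial compound dilutions in 2% FBS DMEM, then infected at an MOI giving full CPE in 2 days; after 48 h, viability by CellTiterBlue fluorescence (560/590 nm) normalised to infected and uninfected vehicle controls; EC50 by non-linear regression, averaged over the four viruses.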
For orientation: Damage to the host cells serves as the signal in cytopathic effect assays.

Each structure is given as a SMILES string.

For 25 compounds, IC50 and EC50 results are on record in US11180479B2 (HAPLOGEN GmbH, priority 2017, dated 2021).

By IC50 is commonly meant the concentration needed to halve the response being measured. The term EC50 denotes the concentration giving half of the maximal effect.

With `O=C(NC1CC(F)(F)C1)C(=O)[C@H]1CNC(=O)[C@@H]1c1ccccc1` (racemic) [FP-16, Rac-N-(3,3-difluorocyclobutyl)-2-oxo-2-[(3R,4S)-5-oxo-4-phenylpyrrolidin-3-yl]acetamide], the IC50 on PLA2G16 is less than 1000 nM. For the same compound, in assay [1], the EC50 was 1000 to 10000 nM.
In the case of `O=C(NC1CC1)C(=O)[C@H]1CN(c2cc(Cl)cc(OCc3ccccc3)n2)C(=O)[C@@H]1Cc1ccccc1` (racemic) [FP-72, Rac-2-[(3R,4R)-4-benzyl-1-[6-(benzyloxy)-4-chloropyridin-2-yl]-5-oxopyrrolidin-3-yl]-N-cyclopropyl-2-oxoacetamide], the IC50 at PLA2G16 was less than 1000 nM. Further, the EC50 in assay [1] was less than 1000 nM.
Take `CC(F)(F)CNC(=O)C(=O)[C@H]1CN(c2cncnc2)C(=O)[C@@H]1Cc1ccccc1` (single isomer, unassigned) [FP-95]: on PLA2G16, the IC50 is less than 1000 nM. Moreover, the EC50 in assay [1] is less than 1000 nM.
With `O=C(NC1CC1)C(=O)[C@H]1CNC(=O)[C@@H]1Cc1ccccc1` (racemic) [FP-2, Rac-2-[(3R,4R)-4-benzyl-5-oxopyrrolidin-3-yl]-N-cyclopropyl-2-oxoacetamide], on PLA2G16, the IC50 was less than 1000 nM. Further, the EC50 in assay [1] was less than 1000 nM.
As for `CN1C[C@H](C(=O)C(=O)NC2CC2)[C@@H](C2CCCCC2)C1=O` (racemic) [FP-38, Rac-2-[(3R,4R)-4-cyclohexyl-1-methyl-5-oxopyrrolidin-3-yl]-N-cyclopropyl-2-oxoacetamide], at PLA2G16, the IC50 was less than 1000 nM. Besides, the EC50 in assay [1] lay within 1000 to 10000 nM.
`O=C(NC1CC1)C(=O)[C@@H]1CN(c2cncnc2)C(=O)[C@H]1Cc1ccccc1` (single isomer, unassigned) [FP-90]: the IC50 on PLA2G16 is less than 1000 nM. The EC50 in assay [1] was 1000 to 10000 nM.
The corresponding values for `O=C(NCC1CC1)C(=O)[C@H]1CNC(=O)[C@@H]1c1ccc(F)cc1` (racemic) [FP-28, Rac-N-(cyclopropylmethyl)-2-[(3R,4S)-4-(4-fluorophenyl)-5-oxopyrrolidin-3-yl]-2-oxoacetamide] are less than 1000 nM and less than 1000 nM.
The corresponding values for `O=C(NCC(F)(F)C(F)(F)F)C(=O)[C@H]1CNC(=O)[C@@H]1c1ccccc1` (racemic) [FP-25, Rac-2-oxo-2-[(3R,4S)-5-oxo-4-phenylpyrrolidin-3-yl]-N-(2,2,3,3,3-pentafluoro-propyl)acetamide] are less than 1000 nM and 1000 to 10000 nM.
Regarding `O=C(NCC1CC(F)(F)C1)C(=O)[C@H]1CNC(=O)[C@@H]1c1ccccc1` (racemic) [FP-23, Rac-N-[(3,3-difluorocyclobutyl)methyl]-2-oxo-2-[(3R,4S)-5-oxo-4-phenylpyrrolidin-3-yl]acetamide], at PLA2G16, the half-maximal inhibitory concentration (IC50) is less than 1000 nM. Also, the EC50 in assay [1] is less than 1000 nM.
For the compound `CCNC(=O)C(=O)[C@H]1CN(Cc2ncccn2)C(=O)[C@@H]1Cc1ccccc1` (racemic) [FP-36, Rac-2-[(3R,4R)-4-benzyl-5-oxo-1-[(pyrimidin-2-yl)methyl]pyrrolidin-3-yl]-N-ethyl-2-oxoacetamide], the IC50 at PLA2G16 is less than 1000 nM. The EC50 in assay [1] lay within 1000 to 10000 nM.
With `O=C(NC1CC1)C(=O)[C@H]1CN(c2ccc(Cl)nn2)C(=O)[C@@H]1Cc1ccccc1` (racemic) [FP-62, Rac-2-[(3R,4R)-4-benzyl-1-(6-chloropyridazin-3-yl)-5-oxopyrrolidin-3-yl]-N-cyclopropyl-2-oxoacetamide], the IC50 at PLA2G16 is less than 1000 nM. Besides, in assay [1], the EC50 was less than 1000 nM.
In the case of `CC(F)(F)CNC(=O)C(=O)[C@H]1CNC(=O)[C@@H]1c1ccc(F)cc1` (racemic) [FP-26, Rac-N-(2,2-difluoropropyl)-2-[(3R,4S)-4-(4-fluorophenyl)-5-oxopyrrolidin-3-yl]-2-oxoacetamide], the IC50 at PLA2G16 was less than 1000 nM. The EC50 in assay [1] fell in the range of 1000 to 10000 nM.
Take `O=C(NCC1CC1)C(=O)[C@H]1CNC(=O)[C@@H]1Cc1ccc(F)cc1` (racemic) [FP-31, Rac-N-(cyclopropylmethyl)-2-[(3R,4R)-4-[(4-fluorophenyl)methyl]-5-oxopyrrolidin-3-yl]-2-oxoacetamide]: the IC50 on PLA2G16 was less than 1000 nM. Further, the EC50 in assay [1] is less than 1000 nM.
On to `O=C(NC1CC1)C(=O)[C@H]1CN(Cc2ncccn2)C(=O)[C@@H]1Cc1ccccc1` (racemic) [FP-35, Rac-2-[(3R,4R)-4-benzyl-5-oxo-1-[(pyrimidin-2-yl)methyl]pyrrolidin-3-yl]-N-cyclopropyl-2-oxoacetamide], for which the IC50 at PLA2G16 is less than 1000 nM. Also, the EC50 in assay [1] lay within 1000 to 10000 nM.
On to `CCNC(=O)C(=O)[C@H]1CN(CC2CCOCC2)C(=O)[C@@H]1Cc1ccccc1` (racemic) [FP-33, Rac-2-[(3R,4R)-4-benzyl-1-[(oxan-4-yl)methyl]-5-oxopyrrolidin-3-yl]-N-ethyl-2-oxoacetamide], for which, at PLA2G16, the half-inhibitory concentration (IC50) was less than 1000 nM. Besides, the EC50 in assay [1] is less than 1000 nM.
Take `O=C(NCC1CCC1)C(=O)[C@H]1CNC(=O)[C@@H]1c1ccccc1` (racemic) [FP-21, Rac-N-(cyclobutylmethyl)-2-oxo-2-[(3R,4S)-5-oxo-4-phenylpyrrolidin-3-yl]acetamide]: the IC50 on PLA2G16 was less than 1000 nM. In addition, in assay [1], the EC50 was less than 1000 nM.
In the case of `O=C(NC1CCC1)C(=O)[C@H]1CNC(=O)[C@@H]1c1ccccc1` (racemic) [FP-19, Rac-N-cyclobutyl-2-oxo-2-[(3R,4S)-5-oxo-4-phenylpyrrolidin-3-yl]acetamide], the IC50 on PLA2G16 is less than 1000 nM. Also, in assay [1], the EC50 is less than 1000 nM.
On to `CC(F)(F)CNC(=O)C(=O)[C@@H]1CN(c2cncnc2)C(=O)[C@H]1Cc1ccccc1` (single isomer, unassigned) [FP-96], for which the IC50 on PLA2G16 was less than 1000 nM. Moreover, the EC50 in assay [1] was 1000 to 10000 nM.
The matching figures for `Cn1cc(N2C[C@H](C(=O)C(=O)NCC(C)(F)F)[C@@H](Cc3ccccc3)C2=O)cn1` (racemic) [FP-76, Rac-2-[(3R,4R)-4-benzyl-1-(1-methyl-1H-pyrazol-4-yl)-5-oxopyrrolidin-3-yl]-N-(2,2-difluoropropyl)-2-oxoacetamide]: less than 1000 nM and less than 1000 nM.
The matching figures for `O=C(NCC(F)(F)F)C(=O)[C@H]1CNC(=O)[C@@H]1c1ccccc1` (racemic) [FP-22, Rac-2-oxo-2-[(3R,4S)-5-oxo-4-phenylpyrrolidin-3-yl]-N-(2,2,2-trifluoroethyl)acetamide]: less than 1000 nM and 1000 to 10000 nM.
The matching figures for `CC(F)(F)CNC(=O)C(=O)[C@H]1CNC(=O)[C@@H]1c1ccccc1` (single isomer, unassigned) [FP-88]: less than 1000 nM and less than 1000 nM.
In the case of `O=C(NCC1CC1)C(=O)[C@H]1CNC(=O)[C@@H]1Cc1ccccc1` (single isomer, unassigned) [FP-81], the IC50 at PLA2G16 was less than 1000 nM. For the same compound, in assay [1], the EC50 is less than 1000 nM.
As for `O=C(NCC1CC1)C(=O)[C@H]1CNC(=O)[C@@H]1c1ccccc1` (single isomer, unassigned) [FP-86], the half-maximal inhibitory concentration (IC50) at PLA2G16 was less than 1000 nM. In addition, in assay [1], the EC50 is less than 1000 nM.
For `O=C(NCCC1CC1)C(=O)[C@H]1CNC(=O)[C@@H]1c1ccccc1` (racemic) [FP-24, Rac-N-(2-cyclopropylethyl)-2-oxo-2-[(3R,4S)-5-oxo-4-phenylpyrrolidin-3-yl]acetamide], on PLA2G16, the IC50 is less than 1000 nM. Further, in assay [1], the EC50 was less than 1000 nM.
For the compound `O=C(NCC1CC1)C(=O)[C@H]1CNC(=O)[C@@H]1Cc1ccccc1` (racemic) [FP-1, Rac-2-[(3R,4R)-4-benzyl-5-oxopyrrolidin-3-yl]-N-(cyclopropylmethyl)-2-oxoacetamide], the IC50 on PLA2G16 was less than 1000 nM. The EC50 in assay [1] was less than 1000 nM.
